Key:
[1] = Solubility of bridged metallocene compound in n-hexane at 25° C.; settings: nitrogen atmosphere, 10 mg of catalyst
[2] = Propylene polymerization with catalyst solution (polymerization activity)
Experimental: An autoclave made of SUS and having an inner volume of 15 mL was thoroughly purged with nitrogen, and 0.4 mL (0.05 M, 20 μmol) of triisobutylaluminum and 2.7 mL of a solvent which served as a polymerization solvent and in which cyclohexane and hexane had been mixed with each other at a mixing ratio of cyclohexane:hexane=9:1 (volume ratio) were put into the autoclave. The content was stirred at 600-times rotation per minute. […]
Under a nitrogen atmosphere, 2.5 mg (molecular weight: 835.07 g/mol) of the catalyst (a) which served as a bridged metallocene compound was put into a Schlenk flask and dissolved in 5.5 mL of hexane. Then, 0.36 mL of a suspension of modified methylaluminoxane (n-hexane solvent, 4.15 M and 1.49 mmol on an aluminum atom basis) was added thereto at room temperature under stirring to prepare a catalyst solution in which the concentration of the catalyst (a) was 0.00051 M.
The catalyst solution was held at room temperature under a nitrogen atmosphere for 30 minutes, 0.2 mL (0.00051 M, 0.10 μmol) of the catalyst solution and 0.7 mL of a solvent which served as a polymerization solvent and in which cyclohexane and hexane had been mixed with each other at a mixing ratio of cyclohexane:hexane=9:1 (volume ratio) were subsequently put into the autoclave, and then the temperature was increased to 65° C. to initiate polymerization. […]

Row | Molecule | solubility determined from the amount of n-hexane necessary for the dissolution [1] | polymerization activity ([2]; Comparative Example 1: propylene 7 bar, 10 minutes, supernatant catalyst solution held 30 minutes, assuming catalyst concentration 0.00050 M) [kg-PP/mmol-Zr·hr] | polymerization activity ([2]; Example 1: propylene 7 bar, 9 minutes, catalyst solution 0.00051 M held 30 minutes, modified methylaluminoxane) [kg-PP/mmol-Zr·hr]
1 | Benzyl(p-chlorophenyl)methylene(cyclopentadienyl)(2,7-diphenyl-3,6-di-tert-butylfluorenyl)zirconium Dichloride [catalyst (c)] | 1585 µM | – | –
2 | Benzyl(phenyl)methylene(cyclopentadienyl)(2,7-di-p-chlorophenyl-3,6-di tert-butylfluorenyl)zirconium Dichloride [catalyst (b)] | 4098 µM | – | –
3 | n-octyl(phenyl)methylene(cyclopentadienyl)(2,7-diphenyl-3,6-di-tert-butylfluorenyl)zirconium Dichloride [catalyst (f)] | 7683 µM | – | –
4 | Benzyl(p-chlorophenyl)methylene(cyclopentadienyl)(2,7-di-p-chlorophenyl-3,6-di-tert-butylfluorenyl)zirconium Dichloride [catalyst (d)] | 901 µM | – | –
5 | Diphenylmethylene(cyclopentadienyl)(2,7-diphenyl-3,6-di-tert-butylfluorenyl)zirconium Dichloride [catalyst (g), reference compound] | not more than 0.211 mmol/L | 3.00 | –
6 | Benzyl(phenyl)methylene(cyclopentadienyl)(2,7-diphenyl-3,6-di-tert-butylfluorenyl)zirconium Dichloride [catalyst (a)] | 1005 µM | – | 39.90
7 | CC(C)(C)c1cc2c3cc(C(C)(C)C)c(-c4ccccc4)cc3[c-](C(Cc3ccccc3)(Cc3ccccc3)[c-]3cccc3)c2cc1-c1ccccc1.[Cl-].[Cl-].[Zr+4] [catalyst (h), Dibenzylmethylene(cyclopentadienyl)(2,7-diphenyl-3,6-di-tert-butylfluorenyl)zirconium Dichloride, reference compound] | not more than 0.278 mmol/L | – | –
8 | Methyl(p-tolyl)methylene(cyclopentadienyl)(2,7-diphenyl-3,6-di-tert-butylfluorenyl)zirconium Dichloride [catalyst (e)] | 6221 µM | – | –

Reference: patent US9315602B2, “Method for producing olefin polymer” (Mitsui Chemicals, Inc., priority 2012, dated 2016)
